In patent publication US20080090749A1 (priority 2005, published 2008):
“And” between values parts separate entries of the source, which are not always exact repeats. Equal values may be shown once.

How the values were obtained:
3-methylhistidine = 3-methylhistidine content in the large intestine of stress-loaded rats by LC/MS (index for proteolysis); assay type: in vivo, Wistar rats
Protocol: (§1) After being preliminarily reared on an ordinary diet (CRF-1, Charles River Japan Inc.) for 1 week, Wistar rats (4 weeks of age, male) were fed an ordinary diet (control group) or a histidine diet prepared by mixing finely milled L-histidine hydrochloride at 2% by weight in the ordinary diet (histidine dosing group) for 2 weeks. In the mornings of day 15, day 16, and day 17 after the start of the rearing with the histidine diet, stress loading was performed by the method described below, and the feces excreted by the rats were examined for weight and description.
(§2) The large intestines of stress-loaded rats were collected and frozen in liquid nitrogen on day 17, and stored at −80° C. until use. Extracted from the frozen samples by the following protocol were noradrenaline, histamine, serotonin and 3-methylhistidine, which were then quantified by LC/MS.
(§3) Each frozen rat tissue (large intestine) stored at −80° C. as disrupted using CryoPress (manufactured by Microtec Co., Ltd.), and 1 mL of methanol per 100 mg at −80° C. was added. The mixture was disrupted using FastPrep (30 sec×2 times), and 0.8 mL of the disruption liquid was recovered. 1 mL of cold chloroform was added thereto, and the mixture was stirred using Vortex for 1 minute, after which 1 mL of cold H2O was added. After the mixture was further stirred using Vortex for 1 minute, it was allowed to stand for 30 minutes. […]

Serotonin = Serotonin content in the large intestine of stress-loaded rats by LC/MS; assay type: in vivo, Wistar rats
Protocol: as §1, §2, §3

[1] = tested on: soft feces due to stress loading by front leg constraint; assay: Stress loading by front leg constraint, histidine oral administration (Example 3), fecal examination; assay type: in vivo, Wistar rats
Protocol: (§4) After being preliminarily reared on an ordinary diet (CRF-1, Charles River Japan Inc.) for 1 week, Wistar rats (6 weeks of age, male) received histidine given by gavage at a frequency of twice a day (morning and evening) on day 8 and day 9 as described above. A 5 mL dosing volume of 0.5% methylcellulose solution (control solution) for the control group, or a solution of L-histidine hydrochloride dissolved (partially suspended) in 0.5% methylcellulose solution to a content ratio of 1.5 g per kg body weight of each rat for the histidine dosing group, was orally administered using a sonde.
In the morning of day 10, the same histidine solution or control solution as those given on the previous day was once orally administered. One hour later, under low-dose ether anesthesia, stress loading was performed by constraining the front legs with a tape of the Scotch brand. After each animal was allowed to stand for 1 hour in an individual cage, the feces excreted by the rat were examined for description, number, and weight.
(§5) Eight rats were used for each group.

Noradrenaline = Noradrenaline content in the large intestine of stress-loaded rats by LC/MS; assay type: in vivo, Wistar rats; details: Stress+ His diet+; day 17; N = 8
Protocol: as §1, §2, §3

[2] = tested on: diarrhea due to stress loading using a stress cage; assay: Stress loading using a stress cage, histidine bolus oral administration (Example 2), fecal examination; assay type: in vivo, Wistar rats
Protocol: as §4, with “after the start of the preliminary rearing.” for “as described above.”, “sonde. Stress loading was performed using a stress cage in the same manner as Example 1. That is, after each rat was transferred to a small individual cage (13.5×27×12 cm) in the morning of day 10, and allowed to stand for 2 hours, the same histidine solution or control solution as those given on the previous day were once orally administered. After being allowed to stand in a small individual cage for 2 hours, each rat was transferred to a constraint cage (5×17×4 cm) and allowed to stand for 1 hour, whereby stress loading was performed. The feces excreted by the rat were examined for description, number, and weight.” for “sonde.”
as §5

[3] = tested on: ulcerative damage of the intestine; details: reported; cited from earlier work
cholera toxin = details: cited from earlier work
[4] = tested on: diarrhea under stress loading using a stress cage; assay: Stress loading using a stress cage, histidine diet (Example 1), fecal examination; assay type: in vivo, Wistar rats; details: for Number of individuals with diarrhea / Number of individuals with soft feces / Number of individuals without diarrhea or soft feces: 8 individuals examined
Protocol: as §1
After being allowed to stand in a small individual cage (13.5×27×12 cm) for about 2 hours, each rat was transferred to a constraint (stress) cage having a size such that the rat cannot move (5×17×4 cm), and further allowed to stand for 2 hours, whereby stress loading was performed (control stress group, histidine dosing stress group). The feces excreted by the rat were examined for description, number, and weight. The stress loading and fecal examination were performed on each individual for three consecutive days.
as §5

Histamine = Histamine content in the large intestine of stress-loaded rats by LC/MS; assay type: in vivo, Wistar rats
Protocol: as §1, §2, §3

[5] = Stress+ His diet+, day 17, N = 8
[6] = individual rats, 1.5 g per kg oral, front leg constraint 1 hour, hydrochloride
[7] = 8 individuals examined, histidine bolus oral administration
[8] = group mean, 8 rats, 1.5 g per kg oral, stress cage 1 hour
[9] = individual rats, 1.5 g per kg oral, stress cage 1 hour, hydrochloride
[10] = individual rats, 2% L-histidine hydrochloride diet, stress cage, stress day 1, hydrochloride
[11] = individual rats, 2% L-histidine hydrochloride diet, stress cage, stress day 2, hydrochloride
[12] = individual rats, 2% L-histidine hydrochloride diet, stress cage, stress day 3, hydrochloride
[13] = stress loading Day 1, histidine diet
[14] = stress loading Day 2, histidine diet
[15] = stress loading Day 3, histidine diet

Cl.N[C@@H](Cc1c[nH]cn1)C(=O)O [Histidine, L-histidine hydrochloride]
3-methylhistidine content in the large intestine (Tissue wet weight) (3-methylhistidine; [5]): 0.13 nmol/g
effect on increase of 3-methylhistidine with stress loading (3-methylhistidine; histidine diet): suppressed
Serotonin content in the large intestine (Tissue wet weight) (Serotonin; [5]): 6.63 nmol/g
effect on increase of serotonin tissue content in the large intestine due to stress loading (Serotonin; histidine diet): tended to be suppressed
Onset of diarrhea, group line ([1]; Mean line of group, 8 rats): 0
Mean number of normal feces ([1]; Table 8, front leg constraint): 0.88
Mean number of soft feces ([1]; Table 8, front leg constraint): 3.75
Total fecal weight, Mean ([1]; group mean, 8 rats): 1.68
Number of normal feces, Mean ([1]; group mean, 8 rats, Table 7): 0.88
Number of soft feces, Mean ([1]; group mean, 8 rats, Table 7): 3.75
Onset of diarrhea ([1]; individual rats, 1.5 g per kg oral, front leg constraint 1 hour): none
Number of normal feces [1, 6]: 4 and 2 and 0 (5×) and 1
Number of soft feces [1, 6]: 5 (2×) and 2 (2×) and 0 and 6 (2×) and 4
Total fecal weight [1, 6]: 2.12 and 0.73 and 1.03 and 0 and 2.18 and 2.47 and 2.63 and 2.31
effect of histidine administration on diarrhea ([1]; oral administration, front leg constraint, compared to the control group): suppressive effect
Noradrenaline content in the large intestine (Tissue wet weight) (Noradrenaline): 0.96 nmol/g
Number of individuals with diarrhea [2, 7]: 0
Number of individuals with soft feces [2, 7]: 8
Number of individuals without diarrhea or soft feces [2, 7]: 0
effect of histidine administration on diarrhea ([2]; bolus oral administration, stress cage, compared to the control group): suppressive effect
Number of normal feces, Mean [2, 8]: 0.125
Number of soft feces, Mean [2, 8]: 6
Total fecal weight, Mean [2, 8]: 1.64 g
Onset of diarrhea, individuals in group ([2]; group of 8 rats, 1.5 g per kg oral, stress cage 1 hour): 0 individual
Onset of diarrhea ([2]; individual rats, 1.5 g per kg oral, stress cage 1 hour): none
Number of normal feces [2, 9]: 0 (7×) and 1
Number of soft feces [2, 9]: 12 and 8 and 3 and 5 and 6 (2×) and 4 (2×)
Total fecal weight [2, 9]: 2.379 g and 2.7 g and 0.852 g and 2.077 g and 1.515 g and 1.975 g and 0.72 g and 0.94 g
effect on ulcerative damage of the intestine by infectious microorganisms and drugs [3]: Mitigates
action on the gut water secretion by cholera toxin (cholera toxin): suppressive action
effect of histidine administration on diarrhea ([4]; histidine diet, stress cage, compared to the control group): suppressive effect
Number of feces Day 1 normal feces ([4]; individual rats, 2% L-histidine hydrochloride diet 2 weeks, stress cage 2 hours, stress day 1, hydrochloride): 6 and 3 (2×) and 1 and 11 and 10 and 5 and 0
Fecal weight Total weight Day 1 [4, 10]: 1.01 g and 1.65 g and 1.94 g and 2.23 g and 2.82 g and 2.46 g and 1.77 g and 0.00 g
Number of feces Day 1 diarrhea [4, 10]: 0 (7×) and 1
Number of feces Day 1 soft feces [4, 10]: 0 (3×) and 1 (2×) and 3 (3×)
Fecal weight Total weight Day 2 [4, 11]: 0.58 g and 0.56 g and 4.02 g and 2.38 g and 0.25 g and 3.48 g and 1.28 g and 1.26 g
Number of feces Day 2 diarrhea [4, 11]: 0 (7×) and 2
Number of feces Day 2 normal feces [4, 11]: 4 and 2 and 10 and 8 and 3 and 5 and 6 (2×)
Number of feces Day 2 soft feces [4, 11]: 0 (4×) and 3 and 2 and 5 and 1
Fecal weight Total weight Day 3 [4, 12]: 1.15 g and 0.46 g and 3.27 g and 1.00 g and 2.22 g and 3.99 g and 1.64 g and 0.41 g
Number of feces Day 3 diarrhea [4, 12]: 0 (7×) and 1
Number of feces Day 3 normal feces [4, 12]: 6 (5×) and 1 and 4 and 3
Number of feces Day 3 soft feces [4, 12]: 0 (3×) and 1 (2×) and 4 (2×) and 5
Number of individuals with diarrhea [4, 13]: 1
Number of individuals with soft feces [4, 13]: 5
Number of individuals without diarrhea or soft feces [4, 13]: 3
Number of individuals with diarrhea [4, 14]: 1
Number of individuals with soft feces [4, 14]: 4
Number of individuals without diarrhea or soft feces [4, 14]: 4
Number of individuals with diarrhea [4, 15]: 1
Number of individuals with soft feces [4, 15]: 5
Number of individuals without diarrhea or soft feces [4, 15]: 3
Histamine content in the large intestine (Tissue wet weight) (Histamine; [5]): 6.61 nmol/g
effect on increase of histamine tissue content in the large intestine due to stress loading (Histamine; histidine diet): tended to be suppressed
